This note sets out measurements from patent US4933336A, “Thiadiazinone, oxadiazinone and triazinone derivatives, and their use for treating acute or chronic heart disease” (Laboratoires Sobio S.A., priority 1987, dated 1990).

In assay [1] the test system is conscious instrumented Dog. The experiment in a line: Cardiotonic activity in the conscious instrumented Dog. In kind it is in vivo, dog (male Beagle). Particulars: Canis lupus familiaris, po; for change in vivo at 0.3 mg/kg: 0.30 mg/kg p.o.; for change in vivo at 0.03 mg/kg: 0.03 mg/kg p.o.; for change in vivo at 0.01 mg/kg: 0.01 mg/kg p.o.; for change in vivo at 10 mg/kg: 10.00 mg/kg p.o. On the procedure:
Cardiotonic activity in the conscious instrumented Dog
Male Beagle dogs, at least 2 years old, weighing 12 to 18 kg were anaesthetised with pentobarbital sodium (30 mg/kg i.v.). Respiration was maintained by a Harward pump, model 613a. The heart was exposed through a left thoracotomy and a pericardial cardle was formed. A high fidelity micromanometer (Koenigsberg P5 -P7) was inserted into left venitricular lumen through a stab incision at the apex. Wires were exteriorised to the back of the animals, placed into a size adapted jacket, and the chest closed. The experiments were conducted on the conscious dogs, 1 or 2 weeks after the surgery, when the animals had completely recovered.
Measured parameters were : first derivative of left ventricular pressure, (dP/dt, mmHg/sec); heart rate (HR, beats/min.). A control period recording of 90 min. was made with the dogs placed in a quiet room, the recordings being made outside. Compounds to be tested were administered orally in gelatin capsules and the parameters measured for 5 hrs. at least.
Results were expressed as the percentage of the maximum±SEM.

For assay [2], the system named is Canine cardiac myofibrillar Ca++-dependent Mg++ ATPase. Description: Measurement of myofibrillar Ca++-dependent Mg++ATPase activity (Ca++ sensitivity and maximal activity). In kind it is biochemical, canine (dog). Particulars: pH 7.0, 21° C. Here is the method:
1. Measurement of myofibrillar Ca++-dependent Mg++ATPase activity
the effect on myofibrillar Ca++sensitivity and on maximal activity of myofibrillar Ca++-dependent Mg++-ATPase was determined on canine cardiac myofibrils.
(a) Contractile protein preparation
Cardiac myofibrils free of membrane contaminants were prepared from left ventricular tissue of dog hearts using a modification of the method described by SOLARO et al, Biochem. Biophys. Acta, 245, 259-262, (1971). Before centrifugration, the heart homogenate was filtered through gauze.
After Triton X-100 treatments, the myofibrillar fraction was washed once by resuspension and centrifugation in 10 volumes of 1 mM EGTA, […], 30 mM imidazole, 2 mM MgCl2, pH 7.0. The pellet was then washed three times in 10 volumes of the same buffer without EGTA. Before the last centrifugation, the suspension of myofibrils was filtered through a stainless steel sieve with 0.25 mm meshes.
Myofibrils were kept in pellet overnight. Before use, the pellet was suspended in a small amount of buffer, the protein concentration was determined by the method of BRADFORD M., Anal. Biochem., 1976, 72, 248 and adjusted in order to have a concentration between 6 and 7 mg/ml.
(b) Myofibrillar ATPase activity
Ca++-dependent myfibrillar ATPase activity was determined at 21° C., pH 7.0, by measuring the rate of release of inorganic phosphate. All assays were performed within 24 hrs. of final purification, using the method described by SOLARO and RUEGG, CIRC. RES., 51, 290-4, (1982). Reaction mixtures (4 ml) containing 0.6-0.7 mg/ml myofibrillar protein, 80 mM KCl, 20 mM imidazole, 3 mM […], 1 mM EGTA, the desired amount of CaCl2, and the indicated concentration of drug or appropriate vehicle were preincubated for 6 min. prior to assay. The amount of CaCl2 was varied between 0 and 0.9 mM and the pCA (-log free Ca++) computed using 2.514×10^6 M^-1 as the apparent affinity of Ca++for EGTA at pH 7.0.
Reactions were initiated by the addition of Na2 ATP to final concentration of 2 mM. After an incubation period of 12 min., reactions were quenched by the addition of an equal volume of ice-cold 10% trichloroacetic acid. The protein was pelleted by centrifugation (2000 g, 15 min.) and Pi was assayed in the supernatant fraction using a modification of the method described by LANZETTA et al, Anal. Biochem., 100, 95-97, (1979).
The following solutions were prepared:
(1) 3.7% ammonium heptamolybdate in 0.12N H2 SO4
(2) 0.074% malachite green oxalate in 1% polyvinylic alcohol.
the colour reagent was prepared by mixing an equal volume of solution (1) and (2) 15 min. before the assay. For the assay, 1700 μl of 1% H2 SO4 and 1 ml of colour reagent were added to 100 μl of sample. Colour development occurred at room temperature for 30 min. and was quenched by the addition of 200 μl of 1M tri-potassium citrate. The absorbance was measured at 620 millimicrons.
The effect of each compound, tested at the indicated concentration, on the relation between pCa and percent activation was determined taking 100% for the maximum ATPase activity obtained with vehicle alone. The effect on Ca++ sensitivity was quantified by measuring the shift of the pCa giving 50% of the maximal control ATPase activity.
The effect on maximal ATPase activity was expressed as the percent change of ATPase activity for pCa=5.47.

[3] abbreviates: read-out: H.R. (heart rate), percentage of the maximum ± SEM.
Setting [4] is: read-out: dP/dt Max (first derivative of left ventricular pressure), percentage of the maximum ± SEM.

Structures are written as SMILES. Like-named read-outs stand apart in the source and are kept apart here.

In the case of `CSC1(C)C(=O)Nc2ccc(C3=NNC(=O)SC3)cc21` (stereo not shown) [Example 1, 1,3-Dihydro-5-(3,6-dihydro-2-oxo-2H-1,3,4-thiadiazin-5-yl)-3-methyl-3-methylthio-2H-indol-2-one], the change in vivo at 0.3 mg/kg in assay [1] (setting [3]) was found to be 17%. Also, the change in vivo at 0.3 mg/kg in assay [1] (setting [4]) was found to be 53%. In assay [2] (20 × 10^-5 molar), the “Max ATPase activity (%) (percent change of ATPase activity for pCa=5.47)” value is -3 ± 2% and the “Ca2+ sensitivity p CA50 (shift of the pCa giving 50% of the maximal control ATPase activity)” value came out at 0.38 ± 0.03.

For the compound `CC1(C)C(=O)Nc2ccc(C3=NNC(=O)SC3)cc21` [Example 2, 1,3-Dihydro-5-(3,6-dihydro-2-oxo-2H-1,3,4-thiadiazin-5-yl)-3,3,-dimethyl-2H-indol-2-one], in assay [2] (20 × 10^-5 molar), the “Max ATPase activity (%) (percent change of ATPase activity for pCa=5.47)” value was -9 ± 2% and the “Ca2+ sensitivity p CA50 (shift of the pCa giving 50% of the maximal control ATPase activity)” value stood at 0.16 ± 0.07.

As to `CC1SC(=O)NN=C1c1ccc2c(c1)C(C)(C)C(=O)N2` (stereo not shown) [Example 3], the change in vivo at 0.03 mg/kg in assay [1] (setting [3]) is 8%; in assay [1] (setting [4]) it was 71%. Further, the “Max ATPase activity (%) (percent change of ATPase activity for pCa=5.47)” value in assay [2] (20 × 10^-5 molar) is -12 ± 2%. For the same compound, in assay [2] (20 × 10^-5 molar), the “Ca2+ sensitivity p CA50 (shift of the pCa giving 50% of the maximal control ATPase activity)” value is given as 0.32 ± 0.06.

`CC1C(=O)Nc2ccc(C3=NNC(=O)SC3)cc21` (stereo not shown) [Example 4, 1,3-Dihydro-5-(3,6-dihydro-2-oxo-2H-1,3,4-thiadiazin-5-yl)-3-methyl-2H-indol-2-one]: in assay [2] (20 × 10^-5 molar), the “Max ATPase activity (%) (percent change of ATPase activity for pCa=5.47)” value is reported as -6 ± 2% and the “Ca2+ sensitivity p CA50 (shift of the pCa giving 50% of the maximal control ATPase activity)” value amounted to 0.15 ± 0.03.

Turning to `CSC1(C)C(=O)Nc2ccc(C3=NNC(=O)SC3C)cc21` (stereo not shown) [Example 5, 1,3-Dihydro-5-(3,6-dihydro-6-methyl-2-oxo-2H-1,3,4-thiadiazin-5-yl)-3-methyl-3-methylthio-2H-indol-2-one], the change in vivo at 0.03 mg/kg in assay [1] (setting [3]) was 16%. For the same compound, the change in vivo at 0.03 mg/kg in assay [1] (setting [4]) was determined as 45%. Further, in assay [2] (20 × 10^-5 molar), the “Max ATPase activity (%) (percent change of ATPase activity for pCa=5.47)” value was -8 ± 1% and the “Ca2+ sensitivity p CA50 (shift of the pCa giving 50% of the maximal control ATPase activity)” value is 0.40 ± 0.08.

As for `CC1SC(=O)NN=C1c1ccc2c(c1)C1(CCCC1)C(=O)N2` (stereo not shown) [Example 6, 5'-(3,6-Dihydro-6-methyl-2-oxo-2H-1,3,4-thiadiazin-5-yl)-spiro[cyclopentane-1,3'-[3H]-indol]-2'(1'H)one], the change in vivo at 0.3 mg/kg was found to be 7% in assay [1] (setting [3]) and 33% in assay [1] (setting [4]).

Turning to `CC(=O)N1C(=O)C(C)(C)c2cc(C3=NNC(=O)SC3C)ccc21` (stereo not shown) [Example 7, 1-Acetyl-1,3-dihydro-5-(3,6-dihydro-6-methyl-2-oxo-H-1,3,4-thiadiazin-5-yl)3,3-dimethyl-2H-indol-2-one], in assay [1] (setting [3]), the change in vivo at 0.01 mg/kg is 9%. The change in vivo at 0.01 mg/kg in assay [1] (setting [4]) amounted to 41%. In addition, in assay [2] (20 × 10^-5 molar), the “Max ATPase activity (%) (percent change of ATPase activity for pCa=5.47)” value was -2 ± 3% and the “Ca2+ sensitivity p CA50 (shift of the pCa giving 50% of the maximal control ATPase activity)” value is given as 0.37 ± 0.06.

As to `CSC1(C)C(=O)N(C(C)=O)c2ccc(C3=NNC(=O)SC3)cc21` (stereo not shown) [Example 9, 1-Acetyl-1,3-dihydro-5-(3,6-dihydro-2-oxo-2H-1,3,4-thiadiazin-5-yl)-3-methyl-3-methylthio-2H-indol-2-one], the change in vivo at 10 mg/kg was 16% in assay [1] (setting [3]) and 68% in assay [1] (setting [4]).

For `CSC1C(=O)Nc2ccc(C3=NNC(=O)SC3C)cc21` (stereo not shown) [Example 10, 1,3-Dihydro-5-(3,6-dihydro-6-methyl-2-oxo-2H-1,3,4-thiadiazin-5-yl)-3-methylthio-2H-indol-2-one], in assay [2] (3 × 10^-5 molar), the “Max ATPase activity (%) (percent change of ATPase activity for pCa=5.47)” value is listed as -9 ± 5% and the “Ca2+ sensitivity p CA50 (shift of the pCa giving 50% of the maximal control ATPase activity)” value came out at 0.36 ± 0.02.

On to `CC1SC(=O)NN=C1c1ccc2c(c1)C(=O)C(=O)N2` (stereo not shown) [Example 12, 5-(3,6-Dihydro-6-methyl-2-oxo-2H-1,3,4-thiadiazin-5-yl)-1H-indole-2,3-dione], for which the change in vivo at 0.3 mg/kg in assay [1] (setting [3]) was 10%; in assay [1] (setting [4]), 51%.

Take `CSC1(SC)C(=O)Nc2ccc(C3=NNC(=O)SC3C)cc21` (stereo not shown) [Example 15, 1,3-Dihydro-5-(3,6-dihydro-6-methyl-2-oxo-2H-1,3,4-thiadiazin-5-yl)-3.3-di(methylthio)-2H-indol-2 one]: in assay [2] (3 × 10^-5 molar), the “Max ATPase activity (%) (percent change of ATPase activity for pCa=5.47)” value is reported as -4 ± 1% and the “Ca2+ sensitivity p CA50 (shift of the pCa giving 50% of the maximal control ATPase activity)” value is on record as 0.37 ± 0.11.

On to `CC1SC(=O)NN=C1c1ccc2c(c1)C1(CC1)C(=O)N2` (stereo not shown) [Example 16, 5'-(3,6-Dihydro-6-methyl-2-oxo-2H-1,3,4 thiadiazin-5-yl) -spiro[cyclopropane-1,3'-[3H]indol]-2'-(1'H)-one], for which the values for the change in vivo at 0.03 mg/kg in assay [1] (setting [3]) and in assay [1] (setting [4]) were 21% and 105%, respectively.

With `CC1SC(=O)NN=C1c1ccc2c(c1)C(C)(C)C(=O)N2C(=O)c1ccccc1` (stereo not shown) [Example 22, 1-Benzoyl-1,3-dihydro-5-(3,6-dihydro-6-methyl-2-oxo-2H-1,3,4-thiadiazin-5-yl)-3,3-dimethyl-2H-indol-2-one], the figures for the change in vivo at 0.03 mg/kg in assay [1] (setting [3]) and in assay [1] (setting [4]) were 14% and 56%, respectively.

As to `CC1NC(=O)NN=C1c1ccc2c(c1)C(C)(C)C(=O)N2` (stereo not shown) [Example 37, 1,3-Dihydro-5-(1,2,3,6-tetrahydro-6-methyl-2-oxo-1,3,4-triazin-5-yl)-3,3-dimethyl-2H-indol-2-one], the change in vivo at 0.03 mg/kg was determined as 24% in assay [1] (setting [3]) and 85% in assay [1] (setting [4]).

For the compound `CC1SC(=O)NN=C1c1ccc2c(c1)C(C)(C)C(=O)N2C(=O)Oc1ccccc1` (stereo not shown) [Example 40, Phenyl 2,3-dihydro-5-(3,6-dihydro-6-methyl-2-oxo-2H-1,3,4-thiadiazin-5-yl)-3,3-dimethyl-2-oxo-1H-indole-1-carboxylate], in assay [2] (3 × 10^-5 molar), the “Max ATPase activity (%) (percent change of ATPase activity for pCa=5.47)” value is “+2 ± 2%” and the “Ca2+ sensitivity p CA50 (shift of the pCa giving 50% of the maximal control ATPase activity)” value came to 0.15 ± 0.01.

`CC1SC(=O)NN=C1c1ccc2c(c1)C(C)(C)C(=O)N2C(=O)c1ccc(N)cc1` (stereo not shown) [Example 42, 1,3-Dihydro-5-(3,6-dihydro-6-methyl-2-oxo-2H-1,3,4-thiadiazin-5-yl)-3,3-dimethyl-1-[(4-aminophenyl)carbonyl]-2H-indol-2-one]: in assay [2] (3 × 10^-5 molar), the “Max ATPase activity (%) (percent change of ATPase activity for pCa=5.47)” value was -9 ± 2% and the “Ca2+ sensitivity p CA50 (shift of the pCa giving 50% of the maximal control ATPase activity)” value is on record as 0.17 ± 0.03.
